Assay results: the supplement of paper PMC10883282

Legend:
Assay in all cases: relative viability vs DMSO control (72 h) (fraction); higher = more viable cells
G401 = test system: G401
Method in brief: (§1)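 Relative viability was measured with ATPLite and expressed as percent growth, averaged across up to triplicate wells. Sarcoma cell lines had been seeded in 384-well plates to reach 80–90% confluence, dosed after 24 h, and incubated 72 h at 37 °C, 5% CO2. All data were rescaled on a scale where 1 is full and 0 is none.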

RD-ES = test system: RD-ES
Method in brief: as §1

VA-ES-BJ = test system: VA-ES-BJ
Method in brief: as §1

RD = test system: RD
Method in brief: as §1

SK-ES-1 = test system: SK-ES-1
Method in brief: as §1

SK-LMS-1 = test system: SK-LMS-1
Method in brief: as §1

MES-SA = test system: MES-SA
Method in brief: as §1

KHOS-NP = test system: KHOS-NP
Method in brief: as §1

HT1080 = test system: HT1080
Method in brief: as §1

SW684 = test system: SW684
Method in brief: as §1

SW1353 = test system: SW1353
Method in brief: as §1

SW872 = test system: SW872
Method in brief: as §1

CCN(c1cc(-c2ccc(CN3CCOCC3)cc2)cc(C(=O)NCc2c(C)cc(C)[nH]c2=O)c1C)C1CCOCC1 [Tazemetostat]
Details	relative viability
G401, 0.00017 µM	1.03
G401, 0.00051 µM	1.01
G401, 0.00152 µM	1
G401, 0.00457 µM	1.049
G401, 0.01372 µM	1.05
G401, 0.04115 µM	1.04
G401, 0.1235 µM	1
G401, 0.3704 µM	0.999
G401, 1.111 µM	1.01
G401, 3.333 µM	1.02
G401, 10 µM	1.01
HT1080, 0.00017 µM	1.09
HT1080, 0.00051 µM	1.1
HT1080, 0.00152 µM	1.08
HT1080, 0.00457 µM	1.09
HT1080, 0.01372 µM	1.085
HT1080, 0.04115 µM	1.07
HT1080, 0.1235 µM	1.09
HT1080, 0.3704 µM	1.1
HT1080, 1.111 µM	1.071
HT1080, 3.333 µM	1.08
HT1080, 10 µM	1.01
KHOS-NP, 0.00017 µM	1.05
KHOS-NP, 0.00051 µM	1.06
KHOS-NP, 0.00152 µM	1.06
KHOS-NP, 0.00457 µM	1.07
KHOS-NP, 0.01372 µM	1.04
KHOS-NP, 0.04115 µM	1.04
KHOS-NP, 0.1235 µM	1.015
KHOS-NP, 0.3704 µM	0.997
KHOS-NP, 1.111 µM	0.98
KHOS-NP, 3.333 µM	0.998
KHOS-NP, 10 µM	0.934
MES-SA, 0.00017 µM	1
MES-SA, 0.00051 µM	0.988
MES-SA, 0.00152 µM	0.9899
MES-SA, 0.00457 µM	0.986
MES-SA, 0.01372 µM	0.977
MES-SA, 0.04115 µM	0.998
MES-SA, 0.1235 µM	1
MES-SA, 0.3704 µM	0.942
MES-SA, 1.111 µM	0.933
MES-SA, 3.333 µM	0.926
MES-SA, 10 µM	0.874
RD, 0.00017 µM	0.988
RD, 0.00051 µM	1
RD, 0.00152 µM	1.04
RD, 0.00457 µM	1.04
RD, 0.01372 µM	1.05
RD, 0.04115 µM	1.03
RD, 0.1235 µM	1.06
RD, 0.3704 µM	1.03
RD, 1.111 µM	1.04
RD, 3.333 µM	1.04
RD, 10 µM	1.03
RD-ES, 0.00017 µM	0.984
RD-ES, 0.00051 µM	1
RD-ES, 0.00152 µM	0.989
RD-ES, 0.00457 µM	0.965
RD-ES, 0.01372 µM	0.968
RD-ES, 0.04115 µM	1.01
RD-ES, 0.1235 µM	0.975
RD-ES, 0.3704 µM	0.971
RD-ES, 1.111 µM	1
RD-ES, 3.333 µM	0.988
RD-ES, 10 µM	0.98
SK-ES-1, 0.00017 µM	1.03
SK-ES-1, 0.00051 µM	1.01
SK-ES-1, 0.00152 µM	0.982
SK-ES-1, 0.00457 µM	0.993
SK-ES-1, 0.01372 µM	0.972
SK-ES-1, 0.04115 µM	1.03
SK-ES-1, 0.1235 µM	1.009
SK-ES-1, 0.3704 µM	0.998
SK-ES-1, 1.111 µM	0.991
SK-ES-1, 3.333 µM	0.961
SK-ES-1, 10 µM	0.995
SK-LMS-1, 0.00017 µM	0.996
SK-LMS-1, 0.00051 µM	1.02
SK-LMS-1, 0.00152 µM	0.981
SK-LMS-1, 0.00457 µM	1
SK-LMS-1, 0.01372 µM	0.997
SK-LMS-1, 0.04115 µM	1.03
SK-LMS-1, 0.1235 µM	0.969
SK-LMS-1, 0.3704 µM	0.9897
SK-LMS-1, 1.111 µM	0.976
SK-LMS-1, 3.333 µM	0.969
SK-LMS-1, 10 µM	0.938
SW684, 0.00017 µM	1.05
SW684, 0.00051 µM	1.092
SW684, 0.00152 µM	1.11
SW684, 0.00457 µM	1.1
SW684, 0.01372 µM	1.12
SW684, 0.04115 µM	1.12
SW684, 0.1235 µM	1.12
SW684, 0.3704 µM	1.11
SW684, 1.111 µM	1.12
SW684, 3.333 µM	1.14
SW684, 10 µM	1.1
SW872, 0.00017 µM	1.04
SW872, 0.00051 µM	1.07
SW872, 0.00152 µM	1.07
SW872, 0.00457 µM	1.072
SW872, 0.01372 µM	1.066
SW872, 0.04115 µM	1.08
SW872, 0.1235 µM	1.05
SW872, 0.3704 µM	1.06
SW872, 1.111 µM	1.02
SW872, 3.333 µM	1.03
SW872, 10 µM	1.02
SW1353, 0.00017 µM	1.08
SW1353, 0.00051 µM	1.04
SW1353, 0.00152 µM	1.065
SW1353, 0.00457 µM	1.08
SW1353, 0.01372 µM	1.05
SW1353, 0.04115 µM	1.09
SW1353, 0.1235 µM	1.05
SW1353, 0.3704 µM	1.04
SW1353, 1.111 µM	1.02
SW1353, 3.333 µM	1.02
SW1353, 10 µM	0.991
VA-ES-BJ, 0.00017 µM	1.038
VA-ES-BJ, 0.00051 µM	1.046
VA-ES-BJ, 0.00152 µM	1.05
VA-ES-BJ, 0.00457 µM	1.05
VA-ES-BJ, 0.01372 µM	1.034
VA-ES-BJ, 0.04115 µM	1.06
VA-ES-BJ, 0.1235 µM	1.06
VA-ES-BJ, 0.3704 µM	1.07
VA-ES-BJ, 1.111 µM	1.06
VA-ES-BJ, 3.333 µM	1.08
VA-ES-BJ, 10 µM	1.07

Cc1cccc(-c2[nH]c(CNc3ccccc3F)nc2-c2ccc3ncnn3c2)n1 [Vactosertib]
Details	relative viability
G401, 0.00017 µM	0.942
G401, 0.00051 µM	0.937
G401, 0.00152 µM	0.969
G401, 0.00457 µM	0.984
G401, 0.01372 µM	0.97
G401, 0.04115 µM	0.937
G401, 0.1235 µM	0.9496
G401, 0.3704 µM	0.978
G401, 1.111 µM	0.9638
G401, 3.333 µM	0.967
G401, 10 µM	0.923
HT1080, 0.00017 µM	1.02
HT1080, 0.00051 µM	1
HT1080, 0.00152 µM	0.967
HT1080, 0.00457 µM	1.01
HT1080, 0.01372 µM	1.042
HT1080, 0.04115 µM	1.01
HT1080, 0.1235 µM	1.04
HT1080, 0.3704 µM	1.05
HT1080, 1.111 µM	1.02
HT1080, 3.333 µM	1.02
HT1080, 10 µM	1.01
KHOS-NP, 0.00017 µM	1.05
KHOS-NP, 0.00051 µM	1.05
KHOS-NP, 0.00152 µM	1.05
KHOS-NP, 0.00457 µM	1.04
KHOS-NP, 0.01372 µM	1.03
KHOS-NP, 0.04115 µM	1.02
KHOS-NP, 0.1235 µM	1.046
KHOS-NP, 0.3704 µM	1.05
KHOS-NP, 1.111 µM	1.05
KHOS-NP, 3.333 µM	1.05
KHOS-NP, 10 µM	1.011
MES-SA, 0.00017 µM	0.892
MES-SA, 0.00051 µM	0.881
MES-SA, 0.00152 µM	0.885
MES-SA, 0.00457 µM	0.866
MES-SA, 0.01372 µM	0.877
MES-SA, 0.04115 µM	0.901
MES-SA, 0.1235 µM	0.894
MES-SA, 0.3704 µM	0.897
MES-SA, 1.111 µM	0.842
MES-SA, 3.333 µM	0.873
MES-SA, 10 µM	0.861
RD, 0.00017 µM	1.07
RD, 0.00051 µM	1.06
RD, 0.00152 µM	1.06
RD, 0.00457 µM	1.09
RD, 0.01372 µM	1.07
RD, 0.04115 µM	1.09
RD, 0.1235 µM	1.07
RD, 0.3704 µM	1.09
RD, 1.111 µM	1.09
RD, 3.333 µM	1.07
RD, 10 µM	1.09
RD-ES, 0.00017 µM	0.9791
RD-ES, 0.00051 µM	0.97
RD-ES, 0.00152 µM	0.974
RD-ES, 0.00457 µM	0.958
RD-ES, 0.01372 µM	0.97
RD-ES, 0.04115 µM	0.973
RD-ES, 0.1235 µM	0.971
RD-ES, 0.3704 µM	0.964
RD-ES, 1.111 µM	0.945
RD-ES, 3.333 µM	0.925
RD-ES, 10 µM	0.865
SK-ES-1, 0.00017 µM	0.986
SK-ES-1, 0.00051 µM	0.97
SK-ES-1, 0.00152 µM	0.98
SK-ES-1, 0.00457 µM	0.974
SK-ES-1, 0.01372 µM	1.02
SK-ES-1, 0.04115 µM	1
SK-ES-1, 0.1235 µM	1.04
SK-ES-1, 0.3704 µM	1.02
SK-ES-1, 1.111 µM	0.964
SK-ES-1, 3.333 µM	1.01
SK-ES-1, 10 µM	0.898
SK-LMS-1, 0.00017 µM	0.968
SK-LMS-1, 0.00051 µM	0.963
SK-LMS-1, 0.00152 µM	0.981
SK-LMS-1, 0.00457 µM	0.982
SK-LMS-1, 0.01372 µM	0.984
SK-LMS-1, 0.04115 µM	0.978
SK-LMS-1, 0.1235 µM	0.95
SK-LMS-1, 0.3704 µM	0.918
SK-LMS-1, 1.111 µM	0.988
SK-LMS-1, 3.333 µM	0.992
SK-LMS-1, 10 µM	0.96
SW684, 0.00017 µM	1.15
SW684, 0.00051 µM	1.08
SW684, 0.00152 µM	1.08
SW684, 0.00457 µM	1.1
SW684, 0.01372 µM	1.07
SW684, 0.04115 µM	1.06
SW684, 0.1235 µM	1.07
SW684, 0.3704 µM	1.04
SW684, 1.111 µM	1.08
SW684, 3.333 µM	1.07
SW684, 10 µM	1.11
SW872, 0.00017 µM	0.928
SW872, 0.00051 µM	0.938
SW872, 0.00152 µM	0.932
SW872, 0.00457 µM	0.958
SW872, 0.01372 µM	0.979
SW872, 0.04115 µM	0.95
SW872, 0.1235 µM	0.969
SW872, 0.3704 µM	0.999
SW872, 1.111 µM	1.06
SW872, 3.333 µM	1.062
SW872, 10 µM	1.02
SW1353, 0.00017 µM	0.904
SW1353, 0.00051 µM	0.964
SW1353, 0.00152 µM	0.89
SW1353, 0.00457 µM	0.911
SW1353, 0.01372 µM	0.947
SW1353, 0.04115 µM	0.953
SW1353, 0.1235 µM	0.96
SW1353, 0.3704 µM	0.946
SW1353, 1.111 µM	0.968
SW1353, 3.333 µM	0.893
SW1353, 10 µM	0.875
VA-ES-BJ, 0.00017 µM	1
VA-ES-BJ, 0.00051 µM	1
VA-ES-BJ, 0.00152 µM	1.006
VA-ES-BJ, 0.00457 µM	1.02
VA-ES-BJ, 0.01372 µM	1.026
VA-ES-BJ, 0.04115 µM	1.04
VA-ES-BJ, 0.1235 µM	1.038
VA-ES-BJ, 0.3704 µM	1.08
VA-ES-BJ, 1.111 µM	1.11
VA-ES-BJ, 3.333 µM	1.11
VA-ES-BJ, 10 µM	1.11
